Assay: xn = mol fraction of the nth substance listed

CC(C)=O [acetone] + O=C=O
Conditions | mass density [kg/m3]
323.15 K, 11950 kPa, Fluid (supercritical or subcritical phases), x2 = 0.811 | 807
323.15 K, 12030 kPa, Fluid (supercritical or subcritical phases), x2 = 0.902 | 754
323.15 K, 12090 kPa, Fluid (supercritical or subcritical phases), x2 = 0.948 | 711
323.15 K, 12200 kPa, Fluid (supercritical or subcritical phases), x2 = 0.933 | 731
323.15 K, 12260 kPa, Fluid (supercritical or subcritical phases), x2 = 0.882 | 779
323.15 K, 12300 kPa, Fluid (supercritical or subcritical phases), x2 = 0.902 | 757
323.15 K, 12370 kPa, Fluid (supercritical or subcritical phases), x2 = 0.772 | 818
323.15 K, 12400 kPa, Fluid (supercritical or subcritical phases), x2 = 0.952 | 710
323.15 K, 12560 kPa, Fluid (supercritical or subcritical phases), x2 = 0.811 | 813
323.15 K, 12620 kPa, Fluid (supercritical or subcritical phases), x2 = 0.902 | 762
323.15 K, 12620 kPa, Fluid (supercritical or subcritical phases), x2 = 0.933 | 740
323.15 K, 12680 kPa, Fluid (supercritical or subcritical phases), x2 = 0.186 | 788
323.15 K, 12750 kPa, Fluid (supercritical or subcritical phases), x2 = 0.948 | 727
323.15 K, 12960 kPa, Fluid (supercritical or subcritical phases), x2 = 0.902 | 769
323.15 K, 12970 kPa, Fluid (supercritical or subcritical phases), x2 = 0.882 | 785
323.15 K, 13090 kPa, Fluid (supercritical or subcritical phases), x2 = 0.811 | 818
323.15 K, 13130 kPa, Fluid (supercritical or subcritical phases), x2 = 0.772 | 823
323.15 K, 13130 kPa, Fluid (supercritical or subcritical phases), x2 = 0.933 | 748
323.15 K, 13170 kPa, Fluid (supercritical or subcritical phases), x2 = 0.952 | 726
323.15 K, 13190 kPa, Fluid (supercritical or subcritical phases), x2 = 0.576 | 829
323.15 K, 13240 kPa, Fluid (supercritical or subcritical phases), x2 = 0.902 | 771
323.15 K, 13450 kPa, Fluid (supercritical or subcritical phases), x2 = 0.902 | 775
323.15 K, 13560 kPa, Fluid (supercritical or subcritical phases), x2 = 0.383 | 813
323.15 K, 13560 kPa, Fluid (supercritical or subcritical phases), x2 = 0.882 | 791
323.15 K, 13610 kPa, Fluid (supercritical or subcritical phases), x2 = 0.811 | 821
323.15 K, 13640 kPa, Fluid (supercritical or subcritical phases), x2 = 0.948 | 744
323.15 K, 13700 kPa, Fluid (supercritical or subcritical phases), x2 = 0.933 | 758
323.15 K, 13770 kPa, Fluid (supercritical or subcritical phases), x2 = 0.902 | 776
323.15 K, 13790 kPa, Fluid (supercritical or subcritical phases), x2 = 0.772 | 827
323.15 K, 14080 kPa, Fluid (supercritical or subcritical phases), x2 = 0.186 | 789
323.15 K, 14080 kPa, Fluid (supercritical or subcritical phases), x2 = 0.952 | 744
323.15 K, 14100 kPa, Fluid (supercritical or subcritical phases), x2 = 0.902 | 781
323.15 K, 14290 kPa, Fluid (supercritical or subcritical phases), x2 = 0.933 | 767
323.15 K, 14430 kPa, Fluid (supercritical or subcritical phases), x2 = 0.902 | 785
323.15 K, 14460 kPa, Fluid (supercritical or subcritical phases), x2 = 0.811 | 826
323.15 K, 14550 kPa, Fluid (supercritical or subcritical phases), x2 = 0.772 | 831
323.15 K, 14550 kPa, Fluid (supercritical or subcritical phases), x2 = 0.882 | 800
323.15 K, 14590 kPa, Fluid (supercritical or subcritical phases), x2 = 0.952 | 751
323.15 K, 14730 kPa, Fluid (supercritical or subcritical phases), x2 = 0.948 | 762
323.15 K, 14780 kPa, Fluid (supercritical or subcritical phases), x2 = 0.902 | 789
323.15 K, 14810 kPa, Fluid (supercritical or subcritical phases), x2 = 0.383 | 817
323.15 K, 14920 kPa, Fluid (supercritical or subcritical phases), x2 = 0.933 | 777
323.15 K, 14950 kPa, Fluid (supercritical or subcritical phases), x2 = 0.186 | 791
323.15 K, 15040 kPa, Fluid (supercritical or subcritical phases), x2 = 0.576 | 834
323.15 K, 15140 kPa, Fluid (supercritical or subcritical phases), x2 = 0.902 | 792
323.15 K, Liquid, Other PVT measurement, x2 = 0.186 | 760
323.15 K, Liquid, Other PVT measurement, x2 = 0.383 | 787
323.15 K, Liquid, Other PVT measurement, x2 = 0.576 | 795
323.15 K, Liquid, Other PVT measurement, x2 = 0.772 | 779
323.15 K, Liquid, Other PVT measurement, x2 = 0.811 | 758
323.15 K, Liquid, Other PVT measurement, x2 = 0.882 | 701
323.15 K, Liquid, Other PVT measurement, x2 = 0.902 | 672
323.15 K, Liquid, Other PVT measurement, x2 = 0.933 | 584
326.65 K, 9160 kPa, Fluid (supercritical or subcritical phases), x2 = 0.933 | 528
326.65 K, 9180 kPa, Fluid (supercritical or subcritical phases), x2 = 0.933 | 531
